Experimental data from patent publication US20030134901A1, “Lipoxin compounds and their use in treating cell proliferative disorders” (priority 1993, published 2003).

Columns and labels:
HUVEC = assay: 3H-LTB4 binding to HUVEC; set-up: species or system human; conditions: 3H-LTB4, n=3
Description: Cell cultures and differentiation. HL-60 cells were seeded in RPMI medium supplemented with 100 U/ml penicillin, 100 μg/ml streptomycin, and 10% fetal calf serum (Hyclone, Logan, Utah), incubated at 37° C. with 5% CO2 atmosphere in 250 ml flasks. Individual flasks containing ˜[…] next received dimethyl sulfoxide (DMSO) (1.12% v/v, 120 h) or retinoic acid (RA) (1 μM, 120 h) or phorbol myristate acetate (PMA) (20 nM, 48 h). Before performing binding assays, cells were washed twice in phosphate buffered saline (PBS), Ca^2+- and Mg^2+-free, enumerated and suspended at 20×10^6 cells/ml in Tris buffer (10 mM), pH 7.4 (Fiore, S. et al.(1992) J. Biol. Chem. 267:16168). Nitro blue tetrazolium reduction was performed to monitor induction of polymorphonuclear phenotype as in (Imaizumi, M. and Breitman, T. R. (1986) Blood 67:1273), and cell adherence was determined for induction of macrophage-like phenotype (Collins, S. J. (1987) Blood 70:1273). […]
Ligand binding. ^3H-LXA4 and ^3H-LTB4 binding was performed essentially as in Fiore, S. et al.(1992) J. Biol. Chem. 267:16168. […] The incubations were rapidly centrifuged (60 sec, 12,000 g) on silicon oil (d=1.028), and cell-associated radioactivity was determined by liquid scintillation counting (Wallac 1409, Pharmacia, Piscataway, N.J.). […]

[1] = molecular target: T1, LXA4 specific binding sites of differentiated HL-60 cells (Homo sapiens, UniProt P25090); assay: 3H-LXA4 specific binding to differentiated HL-60 cells; conditions: competition, competitor 300 nM where printed
T1 construct: endogenous in cells; host or cells: HL-60 cells differentiated with DMSO, retinoic acid or PMA; intact cells
T1 sequence (P25090 1-351): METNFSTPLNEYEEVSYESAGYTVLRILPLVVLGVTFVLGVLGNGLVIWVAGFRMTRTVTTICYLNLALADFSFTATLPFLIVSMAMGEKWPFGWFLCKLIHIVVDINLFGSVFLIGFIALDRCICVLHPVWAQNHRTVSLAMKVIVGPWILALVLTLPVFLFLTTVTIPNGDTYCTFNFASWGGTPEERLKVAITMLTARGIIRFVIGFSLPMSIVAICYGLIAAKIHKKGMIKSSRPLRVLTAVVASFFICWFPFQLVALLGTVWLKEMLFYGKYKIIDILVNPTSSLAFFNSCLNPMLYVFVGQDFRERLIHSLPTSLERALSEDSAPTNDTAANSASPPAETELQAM

15-PGDH = molecular target: T2, 15-PGDH (Homo sapiens, UniProt P15428); conditions: 15-PGDH of HL-60 cells (Agins et al. 1987); cited from earlier work
T2 construct: 100,000 g supernatants prepared from PMA-treated HL-60 cells converted 15-HETE to 15-oxo-ETE; endogenous in cells; host or cells: HL-60 cells treated with PMA (16 nM, 24-72 h); freeze-thaw lysate, 100,000 g supernatant
T2 sequence (P15428 1-266): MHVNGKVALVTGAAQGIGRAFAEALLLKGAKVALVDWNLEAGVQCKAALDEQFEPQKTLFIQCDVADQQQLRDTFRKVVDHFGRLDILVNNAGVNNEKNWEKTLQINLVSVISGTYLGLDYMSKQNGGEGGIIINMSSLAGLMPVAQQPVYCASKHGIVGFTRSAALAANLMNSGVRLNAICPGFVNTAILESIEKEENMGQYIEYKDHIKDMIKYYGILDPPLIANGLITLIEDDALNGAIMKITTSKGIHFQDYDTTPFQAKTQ

A549 cells = assay: 15-HETE generation by IL-1β-treated A549 cells; format: cell-based, human
Description: FIG. 3 is a graph showing the relative chiralities of 15-HETE triggered by ASA. A549 cells (10^7 cells per flask) were exposed to IL-1β (1 ng/ml) for 24 h, treated with vehicle (0.1% vol/vol ethanol) (□) or ASA (▪) for 20 min and then incubated (30 min, 37° C.) in HBSS containing arachidonic acid (20 μM) and A23187 (5 μM). Products were chromatographed by RP-HPLC (as in FIG. 1B) and the region containing 15-HETE was collected, extracted with chloroform and treated with diazomethane. Chiral analysis was performed with a Bakerbond DNBPG (see Methods for details). Results are representative of two separate experiments showing similar results.
In incubations involving permeabilized A549 cells (prepared by a rapid freeze-thaw cycle), IL-1β-treated (1 ng/ml, 24 h) A549 cells (1.5×10^6 cells/ml) were pretreated for 20 min with either vehicle (0.1% EtOH), ASA (500 (M; used throughout), 5 (M 17-ODYA, an inhibitor of cytochrome P450, (Muerhoff A. S., et al. (1989) Prostaglandin and fatty acid ω and (ω-1)-oxidation in rabbit lung: acetylenic fatty acid mechanism-based inactivators as specific inhibitors. J Biol.Chem. 244: 749-756.), or […] Rev 5901 isomer, a 5-LO inhibitor, subjected to two cycles of rapid freezing in a dry ice-acetone bath and thawing to room temperature (full cycle <20 min), and incubated with arachidonic acid ([…] for 20 min at 37° C. in 4 ml of DPBS^2+. In experiments involving radiolabeled arachidonic acid, incubations were initiated with the addition of [^3H]-arachidonic acid (0.25 (Ci/ml) plus unlabeled arachidonic acid ([…] for 20 min at 37° C.
For time-course experiments involving the generation of 15-HETE from endogenous sources (see FIG. 2B), intact A549 cells were exposed to IL-1β (1 ng/ml) for up to 48 h and then treated with vehicle (containing 0.1% EtOH) or ASA for 20 min followed by addition of ionophore A23187 (5 μM) in 4 ml of HBSS for 30 min at 37° C.
The monohydroxy eicosanoids (i. e. 5-, 12- and 15-HETE) from A549 cells were analyzed using a Ultrasphere-ODS column (5 μm, 4.6 mm×25 cm) (Beckman Instruments, Fullerton, Calif.) was eluted with MeOH/H2O/acetic acid (65:35:0.01; v/v/v) as phase one (t0-20 min), and a linear gradient with MeOH/acetic acid (99.9:0.1, v/v) as phase two (20-45 min) at a flow rate of 1.0 ml/min. The R- and S-enantiomers of 15-HETE were resolved and identified using a chiral HPLC system similar to that reported by Hawkins et al. (1988). […] When indicated, generation of 15-HETE from endogenous sources was monitored by radioimmunoassay (RIA). […]

[2] = tested on: A549 cell-PMN costimulation; assay: Eicosanoid formation in A549 cell-PMN coincubations; format: cell-based, human; conditions: A549 cells exposed 20 min before addition of PMN
Description: In coincubation experiments, confluent A549 cells were exposed to IL-1β (1 ng/ml, 24 h), washed in HBSS and treated with vehicle alone or ASA for 20 min and arachidonic acid ([…] for 60 seconds at 37° C. Coincubations were performed by adding PMN to A549 cell monolayers followed by costimulation with ionophore A23187 (5 μM) in 4 ml of HBSS for 30 min at 37° C.
For analysis of LXs (including LXs and 15-epi-LXs) from A549 cell-PMN, coincubations were carried out using either a Waters (Bondapak C18 ([…]) column eluted with an isocratic mobile phase MeOH/H2O/acetic acid (60:40:0.01; v/v/v) with a flow rate of 0.6 ml/min or an Altex Ultrasphere ODS column (5 μm, 10 ×25 cm) eluted with MeOH/H2O/acetic acid (65:35:0.01; v/v/v) at a flow of 3 ml/min. Peptidoleukotrienes (LTC4 and LTD4) eluted in the MeOH fractions from Sep-Pak cartridge extractions were resolved with a Beckman Ultrasphere-ODS column eluted with MeOH/H2O/acetic acid (65:35:0.01; v/v/v), pH 5.7, at 1 ml/min. […] The material beneath peaks absorbing at 300 nm were individually collected after RP-HPLC and analyzed by gas chromatography-mass spectrometry (GC-MS) employing a Hewlett-Packard 5890 GC series II equipped with a 5971A mass-selective quadrapole detector as in Clària, J. and Serhan, C. […]

[3] = pretreatment 20 min, 37° C., chiral HPLC

SMILES: CCCCC/C=C\C[C@@H](O)/C=C/C=C/C=C\[C@@H](O)CCCC(=O)O [LTB4, leukotriene B4]
- specific binding to HUVEC (HUVEC): did not specifically bind
- displacement of 3H-LXA4 specific binding [1]: Neither LXB4, LTB4, nor trihydroxyheptanoic acid (methyl ester) (300 nM) were able to displace

SMILES: CCCCC[C@H](O)/C=C/C=C\C/C=C\C/C=C\CCCC(=O)O [15-HETE, 15-hydroxyeicosatetraenoic acid]
- substrate efficiency compared to PGE2 (15-PGDH): 92%

SMILES: CC(=O)Oc1ccccc1C(=O)O [ASA, acetylsalicylic acid]
- effect on formation of 15-HETE (A549 cells; permeabilized IL-1β-treated A549 cells, arachidonic acid 20 μM): marked increase
- formation of 15S-HETE (A549 cells; [3]): remained unaltered
- increase in the amounts of 15R-HETE (A549 cells; [3]): 3 fold
- formation of LXs [2]: increase in the formation of LXs
- formation of pLTs (LTC4 plus LTD4) [2]: decrease in pLTs
